According to the supplement of paper PMC12370961:

How the values were obtained:
Test in all cases: differential drug sensitivity score (dDSS) relative to sarcoma reference cohort mean DSS (DSS units (0-100 scale difference)); higher = more selective sensitivity than reference sarcomas
Conditions in all cases: exposure time: 72 h; concentration range: 10-10000 nM
[1] = system: ES-ZH016 direct (Ewing sarcoma cells right after isolation)
Protocol: (§1)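 Drug response profiling of patient-derived Ewing sarcoma and CIC::DUX4 sarcoma tumoroid models (or cells tested directly after isolation from the tumor, 'direct'). The DSS is the normalised AUC (0-100); dDSS is the sample DSS minus the mean DSS of a 34-sarcoma reference cohort profiled in the same lab.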

[2] = system: CDS-ZH001 (patient-derived CIC-DUX4 sarcoma tumoroid)
Protocol: as §1

[3] = system: ES-ZH008 (patient-derived Ewing sarcoma tumoroid)
Protocol: as §1

[4] = system: CDS-ZH001-2 (patient-derived CIC-DUX4 sarcoma tumoroid)
Protocol: as §1

[5] = system: ES-ZH004 (patient-derived Ewing sarcoma tumoroid)
Protocol: as §1

[6] = system: ES-ZH007 (patient-derived Ewing sarcoma tumoroid)
Protocol: as §1

[7] = system: CDS-ZH003 (patient-derived CIC-DUX4 sarcoma tumoroid)
Protocol: as §1

[8] = system: ES-ZH002 (patient-derived Ewing sarcoma tumoroid)
Protocol: as §1

[9] = system: CDS-ZH002 direct (CIC-DUX4 sarcoma cells right after isolation)
Protocol: as §1

[10] = system: ES-ZH009 (patient-derived Ewing sarcoma tumoroid)
Protocol: as §1

[11] = system: ES-ZH001 (patient-derived Ewing sarcoma tumoroid)
Protocol: as §1

[12] = system: ES-ZH016 (patient-derived Ewing sarcoma tumoroid)
Protocol: as §1

[13] = system: CDS-ZH002 (patient-derived CIC-DUX4 sarcoma tumoroid)
Protocol: as §1

Row | Structure (SMILES) | differential drug sensitivity score [1] | differential drug sensitivity score [2] | differential drug sensitivity score [3] | differential drug sensitivity score [4] | differential drug sensitivity score [5] | differential drug sensitivity score [6] | differential drug sensitivity score [7] | differential drug sensitivity score [8] | differential drug sensitivity score [9] | differential drug sensitivity score [10] | differential drug sensitivity score [11] | differential drug sensitivity score [12] | differential drug sensitivity score [13]
1 | CCCS(=O)(=O)Nc1ccc(F)c(C(=O)c2c[nH]c3ncc(-c4ccc(Cl)cc4)cc23)c1F [Vemurafenib] | -0.6 | -0.6 | -0.6 | -0.6 | -0.6 | -0.6 | 7.4 | -0.6 | -0.6 | 0.8 | -0.6 | -0.6 | -0.6
2 | CC1(C)CCC(CN2CCN(c3ccc(C(=O)NS(=O)(=O)c4ccc(NCC5CCOCC5)c([N+](=O)[O-])c4)c(Oc4cnc5[nH]ccc5c4)c3)CC2)=C(c2ccc(Cl)cc2)C1 [Venetoclax] | 5.9 | 3.9 | 7.3 | 1.4 | 6.1 | -4.7 | -9.4 | 7.9 | -3.5 | -1.6 | 6.9 | -2.6 | -4.7
3 | O=C(/C=C\n1cnc(-c2cc(C(F)(F)F)cc(C(F)(F)F)c2)n1)NNc1ccccn1 [Verdinexor] | 3.7 | 0.6 | 17.7 | 7.9 | 8.4 | 1.5 | -13 | 11 | 0 | -3.2 | 3.4 | 0.1 | -3.6
4 | CC[C@]1(O)C[C@@H]2CN(CCc3c([nH]c4ccccc34)[C@@](C(=O)OC)(c3cc4c(cc3OC)N(C)[C@H]3[C@@](O)(C(=O)OC)[C@H](OC(C)=O)[C@]5(CC)C=CCN6CC[C@]43[C@@H]65)C2)C1 [Vinblastine] | 10.2 | 9.1 | 12.7 | 2.2 | 12.3 | 13.2 | -9.2 | 22.2 | 8.4 | 23.7 | 22.3 | 16.2 | 13.2
5 | CC[C@]1(O)C[C@H]2CN(CCc3c([nH]c4ccccc34)[C@@](C(=O)OC)(c3cc4c(cc3OC)N(C=O)[C@H]3[C@@](O)(C(=O)OC)[C@H](OC(C)=O)[C@]5(CC)C=CCN6CC[C@]43[C@@H]65)C2)C1 [Vincristine] | 10 | 9.3 | 16.9 | -4.8 | 13.2 | 16.1 | -10.2 | 24 | 13.4 | 26 | 24.2 | 18.3 | 10.8
6 | CCC1=C[C@@H]2CN(C1)Cc1c([nH]c3ccccc13)[C@@](C(=O)OC)(c1cc3c(cc1OC)N(C)[C@H]1[C@@](O)(C(=O)OC)[C@H](OC(C)=O)[C@]4(CC)C=CCN5CC[C@]31[C@@H]54)C2 [Vinorelbine] | 12.2 | 8.7 | 14.7 | 9.1 | 15.4 | 15.8 | 0.2 | 22.8 | 4.3 | 24.7 | 23.7 | 20.4 | 6.9
7 | CS(=O)(=O)c1ccc(C(=O)Nc2ccc(Cl)c(-c3ccccn3)c2)c(Cl)c1 [Vismodegib] | -2.7 | -2.7 | 2.8 | -2.6 | 5.2 | 0.4 | -6.9 | 7.1 | 1.1 | -2.6 | 4.7 | 1.4 | -2.4
8 | CC[C@@H]1C(=O)N(C)c2cnc(Nc3ccc(C(=O)N[C@H]4CC[C@H](N5CCN(CC6CC6)CC5)CC4)cc3OC)nc2N1C(C)C [Volasertib] | 16.6 | -2.4 | 4.5 | 13.2 | 0.5 | 2.9 | -2.3 | 9.4 | -3.8 | 16.1 | 10.3 | 8.9 | 4
9 | O=C(CCCCCCC(=O)Nc1ccccc1)NO [Vorinostat] | 5.3 | -4 | 5.1 | 0.5 | 7.3 | 6.3 | 3.3 | 8 | -0.2 | 6.6 | 9.5 | -0.7 | -3.6
10 | Oc1nc(-c2ccc(C(F)(F)F)cc2)nc2c1CSCC2 [XAV-939] | 3.7 | -2.2 | -2.2 | 3.9 | -2.2 | -1.4 | 7.7 | -1.2 | 4.3 | -0.6 | -2.2 | 2.7 | 1.6
11 | COc1ccc(C(=O)CC2(O)C(=O)Nc3c(Cl)ccc(Cl)c32)cc1 (centres undefined) [YK-4-279] | 2.9 | 0.2 | -0.3 | 1.9 | -3.2 | 0 | -20.3 | 8.2 | -2 | 3.8 | 4.5 | 3.1 | -3
12 | COCC[n+]1c2c(n(Cc3cnccn3)c1C)C(=O)c1ccccc1C2=O [YM155] | 2.3 | -2 | 6.8 | 2.5 | 9.9 | 10.1 | 9.6 | 9.6 | -0.4 | 9.3 | 5.7 | 10.2 | -4.4
13 | CC(C)NCCCn1c(Sc2cc3c(cc2I)OCO3)nc2c(N)ncnc21 [Zelavespib] | 2.3 | 0.5 | 5.8 | 3.1 | -2.1 | 0.4 | 4.4 | 3.4 | -1.1 | 7.3 | 0.8 | -0.6 | -7.7
